How the values were obtained:
Test in all cases: relative viability (nuclei count vs DMSO), 5 days (fraction); higher = more cells survive
Afatinib + Trametinib = compound: CN(C)C/C=C/C(=O)Nc1cc2c(Nc3ccc(F)c(Cl)c3)ncnc2cc1O[C@H]1CCOC1 [Afatinib] + CC(=O)Nc1cccc(-n2c(=O)n(C3CC3)c(=O)c3c(Nc4ccc(I)cc4F)n(C)c(=O)c(C)c32)c1 [Trametinib] (partner 0.02 µM)
Method in brief: (§1)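 Values are medians from duplicate plates. Each reflects relative viability, defined as the nuclei count of treated wells over that of vehicle wells. Lung cancer cell lines in 1536-well plates were pin-tool dosed one day after seeding with one drug alone or with a fixed anchor-drug dose plus five library-drug doses (not always all listed) in √10 steps, then fixed, stained and imaged at 4× after 5 days.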

Afatinib + OSI-027 = compound: CN(C)C/C=C/C(=O)Nc1cc2c(Nc3ccc(F)c(Cl)c3)ncnc2cc1O[C@H]1CCOC1 [Afatinib] + COc1cccc2cc(-c3nc([C@H]4CC[C@H](C(=O)O)CC4)n4ncnc(N)c34)[nH]c12 [OSI-027] (partner 0.5 µM)
Method in brief: as §1

Afatinib + Phenformin = compound: CN(C)C/C=C/C(=O)Nc1cc2c(Nc3ccc(F)c(Cl)c3)ncnc2cc1O[C@H]1CCOC1 [Afatinib] + N=C(N)NC(=N)NCCc1ccccc1 [Phenformin] (partner 250 µM)
Method in brief: as §1

Afatinib + Crizotinib = compound: CN(C)C/C=C/C(=O)Nc1cc2c(Nc3ccc(F)c(Cl)c3)ncnc2cc1O[C@H]1CCOC1 [Afatinib] + C[C@@H](Oc1cc(-c2cnn(C3CCNCC3)c2)cnc1N)c1c(Cl)ccc(F)c1Cl [Crizotinib] (partner 1 µM)
Method in brief: as §1

## NCI-H1734
Afatinib + Trametinib; first compound 0.005 µM
  relative viability: 0.684
Afatinib + Trametinib; first compound 0.01581 µM
  relative viability: 0.671
Afatinib + Trametinib; first compound 0.05 µM
  relative viability: 0.715
Afatinib + Trametinib; first compound 0.1581 µM
  relative viability: 0.683
Afatinib + Trametinib; first compound 0.5 µM
  relative viability: 0.692
Afatinib + OSI-027; first compound 0.005 µM
  relative viability: 0.671
Afatinib + OSI-027; first compound 0.01581 µM
  relative viability: 0.624
Afatinib + OSI-027; first compound 0.05 µM
  relative viability: 0.587
Afatinib + OSI-027; first compound 0.1581 µM
  relative viability: 0.57
Afatinib + OSI-027; first compound 0.5 µM
  relative viability: 0.511
Afatinib + Phenformin; first compound 0.005 µM
  relative viability: 0.419
Afatinib + Phenformin; first compound 0.01581 µM
  relative viability: 0.383
Afatinib + Phenformin; first compound 0.05 µM
  relative viability: 0.412
Afatinib + Phenformin; first compound 0.1581 µM
  relative viability: 0.351
Afatinib + Phenformin; first compound 0.5 µM
  relative viability: 0.405
Afatinib + Crizotinib; first compound 0.005 µM
  relative viability: 0.82
Afatinib + Crizotinib; first compound 0.01581 µM
  relative viability: 0.687
Afatinib + Crizotinib; first compound 0.05 µM
  relative viability: 0.652
Afatinib + Crizotinib; first compound 0.1581 µM
  relative viability: 0.568
Afatinib + Crizotinib; first compound 0.5 µM
  relative viability: 0.642

## NCI-H1755
Afatinib + Trametinib; first compound 0.005 µM
  relative viability: 0.767
Afatinib + Trametinib; first compound 0.01581 µM
  relative viability: 0.792
Afatinib + Trametinib; first compound 0.05 µM
  relative viability: 0.807
Afatinib + Trametinib; first compound 0.1581 µM
  relative viability: 0.679
Afatinib + Trametinib; first compound 0.5 µM
  relative viability: 0.792
Afatinib + OSI-027; first compound 0.005 µM
  relative viability: 0.736
Afatinib + OSI-027; first compound 0.01581 µM
  relative viability: 0.754
Afatinib + OSI-027; first compound 0.05 µM
  relative viability: 0.845
Afatinib + OSI-027; first compound 0.1581 µM
  relative viability: 0.627
Afatinib + OSI-027; first compound 0.5 µM
  relative viability: 0.668
Afatinib + Phenformin; first compound 0.005 µM
  relative viability: 0.677
Afatinib + Phenformin; first compound 0.01581 µM
  relative viability: 0.663
Afatinib + Phenformin; first compound 0.05 µM
  relative viability: 0.823
Afatinib + Phenformin; first compound 0.1581 µM
  relative viability: 0.578
Afatinib + Phenformin; first compound 0.5 µM
  relative viability: 0.617
Afatinib + Crizotinib; first compound 0.005 µM
  relative viability: 0.894
Afatinib + Crizotinib; first compound 0.01581 µM
  relative viability: 0.869
Afatinib + Crizotinib; first compound 0.05 µM
  relative viability: 0.848
Afatinib + Crizotinib; first compound 0.1581 µM
  relative viability: 0.852
Afatinib + Crizotinib; first compound 0.5 µM
  relative viability: 0.868

## NCI-H1792
Afatinib + Trametinib; first compound 0.005 µM
  relative viability: 0.56
Afatinib + Trametinib; first compound 0.01581 µM
  relative viability: 0.393
Afatinib + Trametinib; first compound 0.05 µM
  relative viability: 0.562
Afatinib + Trametinib; first compound 0.1581 µM
  relative viability: 0.538
Afatinib + Trametinib; first compound 0.5 µM
  relative viability: 0.427
Afatinib + OSI-027; first compound 0.005 µM
  relative viability: 0.662
Afatinib + OSI-027; first compound 0.01581 µM
  relative viability: 0.762
Afatinib + OSI-027; first compound 0.05 µM
  relative viability: 0.707
Afatinib + OSI-027; first compound 0.1581 µM
  relative viability: 0.672
Afatinib + OSI-027; first compound 0.5 µM
  relative viability: 0.735
Afatinib + Phenformin; first compound 0.005 µM
  relative viability: 0.16
Afatinib + Phenformin; first compound 0.01581 µM
  relative viability: 0.198
Afatinib + Phenformin; first compound 0.05 µM
  relative viability: 0.398
Afatinib + Phenformin; first compound 0.1581 µM
  relative viability: 0.2
Afatinib + Phenformin; first compound 0.5 µM
  relative viability: 0.238
Afatinib + Crizotinib; first compound 0.005 µM
  relative viability: 1.04
Afatinib + Crizotinib; first compound 0.01581 µM
  relative viability: 1.01
Afatinib + Crizotinib; first compound 0.05 µM
  relative viability: 0.977
Afatinib + Crizotinib; first compound 0.1581 µM
  relative viability: 0.907
Afatinib + Crizotinib; first compound 0.5 µM
  relative viability: 0.856

## NCI-H1915
Afatinib + Trametinib; first compound 0.005 µM
  relative viability: 0.309
Afatinib + Trametinib; first compound 0.01581 µM
  relative viability: 0.304
Afatinib + Trametinib; first compound 0.05 µM
  relative viability: 0.314
Afatinib + Trametinib; first compound 0.1581 µM
  relative viability: 0.3
Afatinib + Trametinib; first compound 0.5 µM
  relative viability: 0.301
Afatinib + OSI-027; first compound 0.005 µM
  relative viability: 0.742
Afatinib + OSI-027; first compound 0.01581 µM
  relative viability: 0.613
Afatinib + OSI-027; first compound 0.05 µM
  relative viability: 0.602
Afatinib + OSI-027; first compound 0.1581 µM
  relative viability: 0.611
Afatinib + OSI-027; first compound 0.5 µM
  relative viability: 0.469
Afatinib + Phenformin; first compound 0.005 µM
  relative viability: 0.389
Afatinib + Phenformin; first compound 0.01581 µM
  relative viability: 0.379
Afatinib + Phenformin; first compound 0.05 µM
  relative viability: 0.363
Afatinib + Phenformin; first compound 0.1581 µM
  relative viability: 0.378
Afatinib + Phenformin; first compound 0.5 µM
  relative viability: 0.33
Afatinib + Crizotinib; first compound 0.005 µM
  relative viability: 1
Afatinib + Crizotinib; first compound 0.01581 µM
  relative viability: 0.963
Afatinib + Crizotinib; first compound 0.05 µM
  relative viability: 0.872
Afatinib + Crizotinib; first compound 0.1581 µM
  relative viability: 0.957
Afatinib + Crizotinib; first compound 0.5 µM
  relative viability: 0.894

## NCI-H1944
Afatinib + Trametinib; first compound 0.005 µM
  relative viability: 0.431
Afatinib + Trametinib; first compound 0.01581 µM
  relative viability: 0.373
Afatinib + Trametinib; first compound 0.05 µM
  relative viability: 0.358
Afatinib + Trametinib; first compound 0.1581 µM
  relative viability: 0.259
Afatinib + Trametinib; first compound 0.5 µM
  relative viability: 0.298
Afatinib + OSI-027; first compound 0.005 µM
  relative viability: 0.429
Afatinib + OSI-027; first compound 0.01581 µM
  relative viability: 0.329
Afatinib + OSI-027; first compound 0.05 µM
  relative viability: 0.328
Afatinib + OSI-027; first compound 0.1581 µM
  relative viability: 0.311
Afatinib + OSI-027; first compound 0.5 µM
  relative viability: 0.327
Afatinib + Phenformin; first compound 0.005 µM
  relative viability: 0.19
Afatinib + Phenformin; first compound 0.01581 µM
  relative viability: 0.195
Afatinib + Phenformin; first compound 0.05 µM
  relative viability: 0.188
Afatinib + Phenformin; first compound 0.1581 µM
  relative viability: 0.174
Afatinib + Phenformin; first compound 0.5 µM
  relative viability: 0.166
Afatinib + Crizotinib; first compound 0.005 µM
  relative viability: 1.08
Afatinib + Crizotinib; first compound 0.01581 µM
  relative viability: 0.989
Afatinib + Crizotinib; first compound 0.05 µM
  relative viability: 0.883
Afatinib + Crizotinib; first compound 0.1581 µM
  relative viability: 0.596
Afatinib + Crizotinib; first compound 0.5 µM
  relative viability: 0.709

## NCI-H1975
Afatinib + Trametinib; first compound 0.005 µM
  relative viability: 0.342
Afatinib + Trametinib; first compound 0.01581 µM
  relative viability: 0.288
Afatinib + Trametinib; first compound 0.05 µM
  relative viability: 0.407
Afatinib + Trametinib; first compound 0.1581 µM
  relative viability: 0.242
Afatinib + Trametinib; first compound 0.5 µM
  relative viability: 0.195
Afatinib + OSI-027; first compound 0.005 µM
  relative viability: 0.81
Afatinib + OSI-027; first compound 0.01581 µM
  relative viability: 0.644
Afatinib + OSI-027; first compound 0.05 µM
  relative viability: 0.688
Afatinib + OSI-027; first compound 0.1581 µM
  relative viability: 0.303
Afatinib + OSI-027; first compound 0.5 µM
  relative viability: 0.147
Afatinib + Phenformin; first compound 0.005 µM
  relative viability: 0.444
Afatinib + Phenformin; first compound 0.01581 µM
  relative viability: 0.413
Afatinib + Phenformin; first compound 0.05 µM
  relative viability: 0.373
Afatinib + Phenformin; first compound 0.1581 µM
  relative viability: 0.223
Afatinib + Phenformin; first compound 0.5 µM
  relative viability: 0.166
Afatinib + Crizotinib; first compound 0.005 µM
  relative viability: 1.14
Afatinib + Crizotinib; first compound 0.01581 µM
  relative viability: 1.07
Afatinib + Crizotinib; first compound 0.05 µM
  relative viability: 1.01
Afatinib + Crizotinib; first compound 0.1581 µM
  relative viability: 0.45
Afatinib + Crizotinib; first compound 0.5 µM
  relative viability: 0.307

## NCI-H1993
Afatinib + Trametinib; first compound 0.005 µM
  relative viability: 0.593
Afatinib + Trametinib; first compound 0.01581 µM
  relative viability: 0.442
Afatinib + Trametinib; first compound 0.05 µM
  relative viability: 0.58
Afatinib + Trametinib; first compound 0.1581 µM
  relative viability: 0.546
Afatinib + Trametinib; first compound 0.5 µM
  relative viability: 0.53
Afatinib + OSI-027; first compound 0.005 µM
  relative viability: 0.519
Afatinib + OSI-027; first compound 0.01581 µM
  relative viability: 0.588
Afatinib + OSI-027; first compound 0.05 µM
  relative viability: 0.674
Afatinib + OSI-027; first compound 0.1581 µM
  relative viability: 0.697
Afatinib + OSI-027; first compound 0.5 µM
  relative viability: 0.564
Afatinib + Phenformin; first compound 0.005 µM
  relative viability: 0.596
Afatinib + Phenformin; first compound 0.01581 µM
  relative viability: 0.645
Afatinib + Phenformin; first compound 0.05 µM
  relative viability: 0.656
Afatinib + Phenformin; first compound 0.1581 µM
  relative viability: 0.639
Afatinib + Phenformin; first compound 0.5 µM
  relative viability: 0.589
Afatinib + Crizotinib; first compound 0.005 µM
  relative viability: 0.647
Afatinib + Crizotinib; first compound 0.01581 µM
  relative viability: 0.732
Afatinib + Crizotinib; first compound 0.05 µM
  relative viability: 0.656
Afatinib + Crizotinib; first compound 0.1581 µM
  relative viability: 0.76
Afatinib + Crizotinib; first compound 0.5 µM
  relative viability: 0.771

## NCI-H2009
Afatinib + Trametinib; first compound 0.005 µM
  relative viability: 0.314
Afatinib + Trametinib; first compound 0.01581 µM
  relative viability: 0.217
Afatinib + Trametinib; first compound 0.05 µM
  relative viability: 0.319
Afatinib + Trametinib; first compound 0.1581 µM
  relative viability: 0.268
Afatinib + Trametinib; first compound 0.5 µM
  relative viability: 0.247
Afatinib + OSI-027; first compound 0.005 µM
  relative viability: 0.635
Afatinib + OSI-027; first compound 0.01581 µM
  relative viability: 0.633
Afatinib + OSI-027; first compound 0.05 µM
  relative viability: 0.714
Afatinib + OSI-027; first compound 0.1581 µM
  relative viability: 0.516
Afatinib + OSI-027; first compound 0.5 µM
  relative viability: 0.459
Afatinib + Phenformin; first compound 0.005 µM
  relative viability: 0.515
Afatinib + Phenformin; first compound 0.01581 µM
  relative viability: 0.481
Afatinib + Phenformin; first compound 0.05 µM
  relative viability: 0.545
Afatinib + Phenformin; first compound 0.1581 µM
  relative viability: 0.424
Afatinib + Phenformin; first compound 0.5 µM
  relative viability: 0.445
Afatinib + Crizotinib; first compound 0.005 µM
  relative viability: 1.07
Afatinib + Crizotinib; first compound 0.01581 µM
  relative viability: 0.977
Afatinib + Crizotinib; first compound 0.05 µM
  relative viability: 1.12
Afatinib + Crizotinib; first compound 0.1581 µM
  relative viability: 1.04
Afatinib + Crizotinib; first compound 0.5 µM
  relative viability: 1.04
